# Laboratory results published in patent US6894047B2, “Triazine compounds useful as sorbitol dehydrogenase inhibitors” (Pfizer Inc., priority 2001, dated 2005).
row,SMILES,melting point [°C]
1,"COc1nc(C)nc(N2C(C)CN(c3ncnc(CO)n3)CC2C)n1 (stereo not drawn) [Example 12, 1-{4-[4-(4-methoxy-6-methyl-[1,3,5]triazin-2-yl)-3R,5S-dimethyl-piperazin-1-yl]-[1,3,5]triazin-2-yl}-methanol]",155 to 160
2,"CC1CN(c2ncnc(-c3ccccc3)n2)CC(C)N1c1ncnc(CO)n1 (stereo not drawn) [Example 16, 1-{4-[4-(4-Phenyl-[1,3,5]triazin-2-yl)-2R,6S-dimethyl-piperazin-1-yl]-[1,3,5]triazin-2-yl}-methanol]",197 to 198
3,"CC1CN(c2ncnc(CO)n2)CC(C)N1c1ncnc(-c2ccccc2)n1 (stereo not drawn) [Example 10, 1-{4-[4-(4-phenyl-[1,3,5]triazin-2-yl)-3R,5S-dimethyl-piperazin-1-yl]-[1,3,5]triazin-2-yl}-methanol]",206 to 207

# Results, then the compound that gave them:
row,melting point [°C],SMILES
1,263 to 265,"Cc1nc(O)nc(N2C(C)CN(c3ncnc(C(C)O)n3)CC2C)n1 (stereo not drawn) [Example 15, 1-{4-[4-(4-Hydroxy-3-methyl-[1,3,5]triazin-2-yl)-3R,5S-dimethyl-piperazin-1-yl]-[1,3,5]triazin-2-yl}-ethanol]"
2,> 275,"CC(O)c1ncnc(N2CC(C)N(c3nc(O)nc(-c4ccccc4)n3)C(C)C2)n1 (stereo not drawn) [Example 14, 1-{4-[4-(4-Hydroxy-6-phenyl-[1,3,5]triazin-2-yl)-3R,5S-dimethyl-piperazin-1-yl]-[1,3,5]triazin-2-yl}-ethanol]"
3,224 to 225,"CC1CN(c2ncnc(CO)n2)CC(C)N1c1ncnc(CO)n1 (stereo not drawn) [Example 11, 1-{4-[4-(4-Hydroxymethyl-[1,3,5]triazin-2-yl)-3R,5S-dimethyl-piperazin-1-yl]-[1,3,5]triazin-2-yl}-methanol]"
